Test results from patent US10076519B2 (CYTOKINETICS, INC., priority 2010, dated 2018).

tested on: rabbit skeletal myofibrils (fast skeletal myofibrils); assay: Activation of fast skeletal myofibrils (PUMA assay, PK/LDH-coupled ATPase at pCa25); type: biochemical; conditions: AC1.4 determined according to the procedure of Example 39; reported as class symbols
How it was run: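 Detergent-washed rabbit psoas myofibrils (~90% fast fibres, calcium-regulated) assayed at calcium giving 25% of maximal ATPase rate (pCa25). ADP turnover coupled via pyruvate kinase/lactate dehydrogenase to NADH oxidation, read at 340 nm. Buffer 12 mM PIPES, 2 mM MgCl2, 1 mM DTT, pH 6.8; AC1.4 values derived.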

Row | SMILES | Mean AC1.4
1 | CCOC(=O)CCc1ccc(NCC(C)(C)c2ccc(F)cc2)nn1 [ethyl 3-(6-{[2-(4-fluorophenyl)-2-methylpropyl]amino}pyridazin-3-yl)propanoate] | D (D=>20 uM)
2 | COC(=O)N1CC(CNc2ccc(-c3cccc(C(N)=O)c3)nn2)(c2ncccc2F)C1 [methyl 3-({[6-(3-carbamoylphenyl)pyridazin-3-yl]amino}methyl)-3-(3-fluoro(2-pyridyl))azetidinecarboxylate] | D (D=>20 uM)
3 | COC(=O)c1cncc(-c2ccc(NCC(C)(C)c3ccc(F)cc3)nn2)c1 [methyl 5-(6-{[2-(4-fluorophenyl)-2-methylpropyl]amino}pyridazin-3-yl)pyridine-3-carboxylate] | B (B=1-10 uM)
4 | CC(C)(C)OC(=O)N1CCN(C(=O)c2ccc(NCC(C)(C)c3ccc(F)cc3)nn2)CC1 [tert-butyl 4-[(6-{[2-(4-fluorophenyl)-2-methylpropyl]amino}pyridazin-3-yl)carbonyl]piperazinecarboxylate] | D (D=>20 uM)

More lines, now with the values ahead:

Row | Mean AC1.4 | SMILES
5 | D (D=>20 uM) | CCOC(=O)C1(NC(=O)c2ccc(NCC(C)(C)c3ccc(F)cc3)nn2)CC1 [ethyl 1-[(6-{[2-(4-fluorophenyl)-2-methylpropyl]amino}pyridazin-3-yl)carbonylamino]cyclopropane-carboxylate]
6 | B (B=1-10 uM) | CCOC(=O)c1cc(-c2ccc(NCC(C)(C)c3ccc(F)cc3)nn2)ccc1F [ethyl 2-fluoro-5-(6-{[2-(4-fluorophenyl)-2-methylpropyl]amino}pyridazin-3-yl)benzoate]
7 | D (D=>20 uM) | COC(=O)N1CC(CNc2ccc(-c3ccc4[nH]ncc4c3)nn2)(c2ncccc2F)C1 [methyl 3-(3-fluoro(2-pyridyl))-3-{[(6-(1H-indazol-5-yl)pyridazin-3-yl)amino]methyl}azetidine-carboxylate]

same assay, conditions: median AC1.4 class, procedure of Example 39

Row | SMILES | Mean AC1.4
8 | NC(=O)NCc1cnc(-c2ccc(NCC3(c4ncccc4F)CCC3)nn2)s1 [amino-N-({2-[6-({[(3-fluoro(2-pyridyl))cyclobutyl]methyl}ami-no)pyridazin-3-yl](1,3-thiazol-5-yl)}methyl)amide] | A (A=<1 uM)
9 | NS(=O)(=O)Nc1ccc(F)c(-c2ccc(NCC3(c4ncccc4F)CCC3)nn2)c1 [amino{4-fluoro-3-[6-({[(3-fluoro(2-pyridyl))cyclobutyl]methyl}ami-no)pyridazin-3-yl]phenyl}sulfonamide] | A (A=<1 uM)
10 | CCOC(=O)c1sc(-c2ccc(NCC3(c4ncccc4F)CCC3)nn2)nc1O [ethyl 2-[6-({[(3-fluoro(2-pyridyl))cyclobutyl]methyl}ami-no)pyridazin-3-yl]-4-hydroxy-1,3-thiazole-5-carboxylate] | D (D=>20 uM)
11 | CCOC(=O)c1cc(-c2ccc(NC[C@]3(c4ncccc4F)C[C@H](F)C3)nn2)ccc1F [ethyl 2-fluoro-5-[6-({[3-fluoro-1-(3-fluoro(2-pyridyl))cyclobutyl]methyl}ami-no)pyridazin-3-yl]benzoate] | C (C=10-20 uM)
12 | CCOC(=O)c1nc(-c2cc(Cl)c(NCC3(c4ncccc4F)CCC3)nn2)sc1Cl [ethyl 5-chloro-2-[5-chloro-6-({[(3-fluoro(2-pyridyl))cyclobutyl]methyl}ami-no)pyridazin-3-yl]-1,3-thiazole-4-carboxylate] | D (D=>20 uM)
13 | COC(=O)c1cnc(-c2ccc(NCC3(c4ncccc4F)CCC3)nn2)o1 [methyl 2-[6-({[(3-fluoro-2-pyridyl)cyclobutyl]methyl}ami-no)pyridazin-3-yl]-1,3-oxazole-5-carboxylate] | D (D=>20 uM)
14 | COC(=O)c1cccc(-c2ccc(NC[C@]3(c4ncccc4F)C[C@H](F)C3)nn2)c1 [methyl 3-[6-({[3-fluoro-1-(3-fluoro(2-pyridyl))cyclobutyl]methyl}ami-no)pyridazin-3-yl]benzoate] | B (B=1-10 uM)
15 | CC(C)OC(=O)c1ccc(F)c(-c2ccc(NC[C@]3(c4ncccc4F)C[C@H](F)C3)nn2)c1 [methylethyl 4-fluoro-3-[6-({[3-fluoro-1-(3-fluoro(2-pyridyl))cyclobutyl]methyl}ami-no)pyridazin-3-yl]benzoate] | B (B=1-10 uM)

The next lines start with the values.

Row | Mean AC1.4 | SMILES
16 | A (A=<1 uM) | NC(=S)c1cnc(-c2ccc(NCC3(c4ncccc4F)CCC3)nn2)s1 [amino{2-[6-({[(3-fluoro(2-pyridyl))cyclobutyl]methyl}ami-no)pyridazin-3-yl](1,3-thiazol-5-yl)}methane-1-thione]
17 | D (D=>20 uM) | CCOC(=O)c1c(-c2ccc(NCC3(c4ncccc4F)CCC3)nn2)n[nH]c1O [ethyl 3-[6-({[(3-fluoro(2-pyridyl))cyclobutyl]methyl}ami-no)pyridazin-3-yl]-5-hydroxypyrazole-4-carboxylate]
18 | D (D=>20 uM) | COC(=O)c1cn(C)c(-c2ccc(NCC3(c4ncccc4F)CCC3)nn2)n1 [methyl 2-[6-({[(3-fluoro(2-pyridyl))cyclobutyl]methyl}ami-no)pyridazin-3-yl]-1-methylimidazole-4-carboxylate]
19 | D (D=>20 uM) | COC(=O)c1csc(-c2ccc(NCC3(c4ncccc4F)CCC3)nn2)n1 [methyl 2-[6-({[(3-fluoro-2-pyridyl)cyclobutyl]methyl}ami-no)pyridazin-3-yl]-1,3-thiazole-4-carboxylate]
20 | D (D=>20 uM) | COC(=O)c1c[nH]c(-c2ccc(NCC3(c4ncccc4F)CCC3)nn2)n1 [methyl 2-[6-({[(3-fluoro-2-pyridyl)cyclobutyl]methyl}ami-no)pyridazin-3-yl]imidazole-4-carboxylate]
21 | B (B=1-10 uM) | COC(=O)c1ccc(F)c(-c2ccc(NC[C@]3(c4ncccc4F)C[C@H](F)C3)nn2)c1 [methyl 4-fluoro-3-[6-({[3-fluoro-1-(3-fluoro(2-pyridyl))cyclobutyl]methyl}ami-no)pyridazin-3-yl]benzoate]
22 | D (D=>20 uM) | O=C(CNC(=O)c1ccc(NCC2(c3ncccc3F)CCC2)nn1)OCc1ccccc1 [phenylmethyl 2-{[6-({[(3-fluoro-2-pyridyl)cyclobutyl]methyl}ami-no)pyridazin-3-yl]carbonylamino}acetate]

same assay, conditions: median AC1.4 reported as class; procedure of Example 39

Row | SMILES | Mean AC1.4
23 | CCOC(=O)Cc1csc(NC(=O)c2ccc(NCC3(c4ncccc4F)CCC3)nn2)n1 [ethyl 2-(2-{[6-({[(3-fluoro-2-pyridyl)cyclobutyl]methyl}ami-no)pyridazin-3-yl]carbonylamino}-1,3-thiazol-4-yl)acetate] | A (A=<1 uM)
24 | CCOC(=O)Cc1csc(-c2ccc(NCC3(c4ncccc4F)CCC3)nn2)n1 [ethyl 2-{2-[6-({[(3-fluoro-2-pyridyl)cyclobutyl]methyl}ami-no)pyridazin-3-yl]-1,3-thiazol-4-yl}acetate] | C (C=10-20 uM)
25 | CCOC(=O)c1coc(NC(=O)c2ccc(NCC3(c4ncccc4F)CCC3)nn2)n1 [ethyl 2-{[6-({[(3-fluoro-2-pyridyl)cyclobutyl]methyl}ami-no)pyridazin-3-yl]carbonylamino}-1,3-oxazole-4-carboxylate] | D (D=>20 uM)
26 | CCOC(=O)c1cnc(NC(=O)c2ccc(NCC3(c4ncccc4F)CCC3)nn2)s1 [ethyl 2-{[6-({[(3-fluoro-2-pyridyl)cyclobutyl]methyl}ami-no)pyridazin-3-yl]carbonylamino}-1,3-thiazole-5-carboxylate] | D (D=>20 uM)
27 | CCOC(=O)c1nc(NC(=O)c2ccc(NCC3(c4ncccc4F)CCC3)nn2)cn1C [ethyl 4-{[6-({[(3-fluoro(2-pyridyl))cyclobutyl]methyl}ami-no)pyridazin-3-yl]carbonylamino}-1-methylimidazole-2-carboxylate] | D (D=>20 uM)
28 | CCOC(=O)c1cc(-c2ccc(NC[C@]3(c4ncccc4F)C[C@H](F)C3)nn2)ccc1NC [ethyl 5-[6-({[3-fluoro-1-(3-fluoro(2-pyridyl))cyclobutyl]methyl}ami-no)pyridazin-3-yl]-2-(methylamino)benzoate] | A (A=<1 uM)
29 | COC(=O)c1csc(NC(=O)c2ccc(NCC3(c4ncccc4F)CCC3)nn2)n1 [methyl 2-{[6-({[(3-fluoro-2-pyridyl)cyclobutyl]methyl}ami-no)pyridazin-3-yl]carbonylamino}-1,3-thiazole-4-carboxylate] | B (B=1-10 uM)
30 | CNc1ccc(-c2ccc(NC[C@]3(c4ncccc4F)C[C@H](F)C3)nn2)cc1C(=O)OC [methyl 5-[6-({[3-fluoro-1-(3-fluoro(2-pyridyl))cyclobutyl]methyl}ami-no)pyridazin-3-yl]-2-(methylamino)benzoate] | B (B=1-10 uM)

More lines, now with the values ahead:

Row | Mean AC1.4 | SMILES
31 | D (D=>20 uM) | NC(=O)NC1CCc2nc(-c3ccc(NCC4(c5ncccc5F)CCC4)nn3)sc2C1 (centres unmarked) [amino-N-{2-[6-({[(3-fluoro(2-pyridyl))cyclobutyl]methyl}ami-no)pyridazin-3-yl](4,5,6,7-tetrahydrobenzothiazol-6-yl)}amide]
32 | D (D=>20 uM) | CCOC(=O)Cc1nnc(NC(=O)c2ccc(NCC3(c4ncccc4F)CCC3)nn2)s1 [ethyl 2-(5-{[6-({[(3-fluoro-2-pyridyl)cyclobutyl]methyl}ami-no)pyridazin-3-yl]carbonylamino}-1,3,4-thiadiazol-2-yl)acetate]
33 | B (B=1-10 uM) | COC(=O)Cc1ccc(F)c(-c2ccc(NCC3(c4ncccc4F)CCC3)nn2)c1 [methyl 2-{4-fluoro-3-[6-({[(3-fluoro(2-pyridyl))cyclobutyl]methyl}ami-no)pyridazin-3-yl]phenyl}acetate]
34 | B (B=1-10 uM) | COC(=O)CCc1cnc(-c2ccc(NCC3(c4ncccc4F)CCC3)nn2)s1 [methyl 3-{2-[6-({[(3-fluoro-2-pyridyl)cyclobutyl]methyl}ami-no)pyridazin-3-yl]-1,3-thiazol-5-yl}propanoate]
35 | A (A=<1 uM) | COC(=O)c1cc2cc(-c3ccc(NC[C@]4(c5ncccc5F)C[C@H](F)C4)nn3)ccc2[nH]1 [methyl 5-[6-({[3-fluoro-1-(3-fluoro(2-pyridyl))cyclobutyl]methyl}ami-no)pyridazin-3-yl]indole-2-carboxylate]
